This is an account of results in US6462055B2, “Alpha-methylbenzyl-containing thiourea inhibitors of herpes viruses containing a phenylenediamine group” (Wyeth, priority 1998, dated 2002).

≈ marks a conversion by molar mass, not a printed value.

For test [1], the system named is HSV-1. The test is described as follows: HSV Antiviral (ELISA) Assay in Vero cells. The class given is cell-based, herpes simplex virus type 1. To be noted: HSV-1, Vero cells; for IC50: Human alphaherpesvirus 1, read-out: IC50 (ug/ml) HSV. The method, then:
Vero cells (ATCC #CCL-81) are plated on 96-well tissue culture plates at 3.5×10^4 cells per 100 μl tissue culture DMEM (Dulbeccos modified Eagle media) supplemented with 2% fetal bovine serum (FBS) in each well. After overnight incubation @ 37° C. (in 5% CO2) and 30 minutes prior to infection with HSV-1 (multiplicity of infection equal to 0.006), cells are either untreated, or treated with test compound (multiple concentrations) or reference standard drug control. After approximately 24 hours post-infection incubation @ 37° C. (in 5% CO2), cells are fixed for ELISA assay. The primary antibody is murine anti-HSV glycoprotein D monoclonal primary antibody and the secondary antibody is goat anti-mouse IgG linked to β-galactosidase. Thus the extent of viral replication is determined by assessing β-galactosidase activity by quantifying the generation of the 4-methyl umbelliferone fluorescent cleavage product after addition of the methyl umbelliferyl-β-D-galactoside (Sigma #M1633) substrate on a microfluorimeter (365 nm for excitation and 450 nm for emission). Antiviral activity (IC50) of the test compound is determined by comparing the flourescence obtained in absence of compound to that obtained in the presence of compound.
In general terms: In an ELISA, binding on a coated surface is turned into a signal by an enzyme label.

Test [2] relates to VZV strain Ellen. The test is described as follows: VZV Antiviral (ELISA) Assay in human foreskin fibroblast cells. The class given is cell-based, varicella-zoster virus. To be noted: for IC50 / inhibition at 10 µg/mL: Human alphaherpesvirus 3, Fibroblast; for IC50: read-out: IC50 (ug/ml) VZV; for inhibition at 10 µg/mL: read-out: % inhibition 10 ug/ml VZV, 10 ug/ml. The method, then: For the generation of stock VZV to be used in the assay, VZV strain Ellen (ATCC #VR-1367) is used to infect human foreskin fibroblast (HFF) cells at low multiplicity (less than 0.1) and incubated overnight at 37° C. in 5% CO2. After the overnight incubation, the mixture of uninfected and VZV-infected HFF infected cells are then harvested and added to each well of 96-well plates (3.5×10^4 cells in 100 μl DMEM supplemented with 2% FBS) which contain test compound or the reference standard drug control (in 100 μl DMEM supplemented with 2% FBS per well). These cells are incubated for three days at 37° C. in 5% CO2, then fixed for ELISA assay. The primary antibody is murine anti-VZV glycoprotein II monoclonal antibody (Applied Biosystems, Inc. #13-145-100) and the secondary antibody is goat anti-mouse IgG linked to β-galactosidase. Thus the extent of viral replication is determined by assessing β-galactosidase activity by quantifying the generation of the 4-methyl umbelliferone fluorescent cleavage product after addition of the methyl umbelliferyl-β-D-galactoside (Sigma #M1633) substrate on a microfluorimeter (365 nm for excitation and 450 nm for emission). Antiviral activity (IC50) of the test compound is determined by comparing the flourescence obtained in absence of compound to that obtained in the presence of compound.

In the case of `CC(NC(=S)Nc1ccc(NC(=O)c2ccc(C#N)cc2)cc1)c1ccc(F)cc1` (stereo not shown) [Example 1022, 4-Cyano-N-(4-{3-[1-(4-fluoro-phenyl)-ethyl]-thioureido}-phenyl)-benzamide], the IC50 in test [1] was over 10 µg/mL; in test [2], 1.5 µg/mL (≈ 3.58 µM).
Turning to `CN(C)c1ccc(NC(=S)Nc2ccc(NC(=O)c3ccccc3F)cc2)cc1Cl` [Example 852, N-{4-[3-(3-Chloro-4-dimethylamino-phenyl)-thioureido]-phenyl}-2-fluoro-benzamide], the IC50 is 4 µg/mL (≈ 9.03 µM) in test [1] and 6.5 µg/mL (≈ 14.7 µM) in test [2]. In addition, the inhibition at 10 µg/mL in test [2] amounted to 80%.
`C[C@H](NC(=S)Nc1ccc(NC(=O)c2ccccc2F)cc1)c1ccc(Cl)cc1` [Example 1015, N-(4-{3-[(1S)-1-(4-Chloro-phenyl)-ethyl]-thioureido}-phenyl)-2-fluorobenzamide]: the IC50 in test [1] was over 10 µg/mL; in test [2], 0.03 µg/mL (≈ 0.0701 µM).
Consider `Cc1nc2cc(NC(=S)Nc3ccc(NC(=O)c4ccccc4F)cc3)ccc2[nH]1` [Example 497], for which the “IC50 (ug/ml) HSV” value in test [1] was over 10 µg/mL. Also, in test [2], the “IC50 (ug/ml) VZV” value was over 10 µg/mL and the “% inhibition 10 ug/ml VZV” value is recorded as 10%.
In the case of `Cc1cccc(NC(=S)Nc2ccc(NC(=O)c3ccccc3F)cc2)c1` [Example 432], the “IC50 (ug/ml) HSV” value in test [1] amounted to 1.6 µg/mL (≈ 4.22 µM). Also, in test [2], the “IC50 (ug/ml) VZV” value is over 10 µg/mL and the “% inhibition 10 ug/ml VZV” value came out at 0%.
With `CC(NC(=S)Nc1ccc(NC(=O)c2nccc3ccccc23)cc1)c1ccc(Br)cc1` (stereo not shown) [Example 978, Isoquinoline-1-carboxylic acid (4-{3-[1-(4-bromo-phenyl)ethyl]-thioureido}-phenyl)-amide], the figures for the IC50 in test [1] and in test [2] were over 10 µg/mL and 0.04 µg/mL (≈ 0.0791 µM), respectively.
`COc1cccc(C(=O)Nc2ccc(NC(=S)Nc3ccc(OC)c(Cl)c3)cc2)c1` [Example 819, N-{4-[3-(3-Chloro-4-methoxy-phenyl)-thioureido]-phenyl}-3-methoxy-benzamide]: the IC50 in test [1] was determined as 6 µg/mL (≈ 13.6 µM). In test [2], the inhibition at 10 µg/mL turned out to be 93% and the IC50 was 2.5 µg/mL (≈ 5.66 µM).
With `CCCOc1ccc(NC(=S)Nc2ccc(NC(=O)c3ccccc3F)cc2)cc1Cl` [Example 807], the “IC50 (ug/ml) HSV” value in test [1] is over 10 µg/mL. The “IC50 (ug/ml) VZV” value in test [2] came to 0.9 µg/mL (≈ 1.97 µM).
For `COc1ccc(C(=O)Nc2ccc(NC(=S)Nc3ccc(OC)c(Cl)c3)cc2)cc1` [Example 820, N-{4-[3-(3-Chloro-4-methoxy-phenyl)-thioureido]-phenyl}-4-methoxy-benzamide], the IC50 in test [1] was determined as 4 µg/mL (≈ 9.05 µM). In test [2], the inhibition at 10 µg/mL stood at 20% and the IC50 was over 10 µg/mL.
As for `O=C(Nc1ccc(NC(=S)Nc2ccc3[nH]cnc3c2)cc1)c1ccccc1F` [Example 496], the “IC50 (ug/ml) HSV” value in test [1] is over 10 µg/mL. Further, in test [2], the “IC50 (ug/ml) VZV” value was over 10 µg/mL and the “% inhibition 10 ug/ml VZV” value stood at 25%.
For the compound `COc1cccc(NC(=S)Nc2ccc(NC(=O)c3ccccc3F)cc2)c1` [Example 487], the “IC50 (ug/ml) HSV” value in test [1] is 4 µg/mL (≈ 10.1 µM). Besides, in test [2], the “IC50 (ug/ml) VZV” value was over 10 µg/mL and the “% inhibition 10 ug/ml VZV” value worked out at 48%.
Regarding `COc1ccc(C(=O)Nc2ccc(NC(=S)Nc3cc(Cl)c(OC)c(Cl)c3)cc2)cc1` [Example 880, N-{4-[3-(3,5-Dichloro-4-methoxy-phenyl)-thioureido]-phenyl}-4-methoxy-benzamide], the IC50 in test [1] is over 10 µg/mL. Also, in test [2], the inhibition at 10 µg/mL was found to be 30% and the IC50 was over 10 µg/mL.
Take `CC(NC(=S)Nc1ccc(NC(=O)c2cccc3cccnc23)cc1)c1ccc(F)cc1` (stereo not shown) [Example 991, Quinoline-8-carboxylic acid (4-{3-[1-(4-fluoro-phenyl)-ethyl]-thioureido}-phenyl)-amide]: the IC50 in test [1] was over 10 µg/mL; in test [2], 0.1 µg/mL (≈ 0.225 µM).
As for `O=C(Nc1ccc(NC(=S)Nc2ccccc2Cl)cc1)c1ccccc1F` [Example 948, N-{4-[3-(2-Chloro-phenyl)-thioureido]-phenyl}-2-fluoro-benzamide], the IC50 in test [1] was determined as 6 µg/mL (≈ 15 µM). Moreover, in test [2], the inhibition at 10 µg/mL was found to be 4% and the IC50 was over 10 µg/mL.
`CC(O)c1ccc(NC(=S)Nc2ccc(NC(=O)c3ccccc3F)cc2)cc1Cl` (stereo not shown) [Example 865, N-(4-{3-[3-Chloro-4-(1-hydroxy-ethyl)-phenyl]-thioureido}-phenyl)-2-fluoro-benzamide]: the IC50 in test [1] was 4 µg/mL (≈ 9.01 µM); in test [2] it was over 10 µg/mL. For the same compound, in test [2], the inhibition at 10 µg/mL was found to be 52%.
Consider `CC(NC(=S)Nc1ccc(NC(=O)c2ccccc2F)cc1)c1ccc(S(=O)(=O)N(C)C)cc1` (stereo not shown) [Example 1008, N-(4-{3-[1-(4-Dimethylsulfamoyl-phenyl)-ethyl]-thioureido}-phenyl)-2-fluoro-benzamide], for which the IC50 in test [1] and in test [2] was over 10 µg/mL throughout.
As for `Cc1ccc([C@H](C)NC(=S)Nc2ccc(NC(=O)c3ccccc3F)cc2)cc1` [Example 1011, 2-Fluoro-N-{4-[3-((1S)-1-p-tolyl-ethyl)-thioureido]-phenyl}-benzamide], the IC50 in test [1] is over 10 µg/mL; in test [2], 0.55 µg/mL (≈ 1.35 µM).
For the compound `CC(NC(=S)Nc1ccc(NC(=O)c2cc3ccccc3cn2)cc1)c1ccc(F)cc1` (stereo not shown) [Example 984, Isoquinoline-3-carboxylic acid (4-{3-[1-(4-fluoro-phenyl)ethyl]-thioureido}-phenyl)-amide], the IC50 was 7.2 µg/mL (≈ 16.2 µM) in test [1] and 0.08 µg/mL (≈ 0.18 µM) in test [2].
For `COc1cc(OC)c(NC(=S)Nc2ccc(NC(=O)c3ccccc3CO)cc2)cc1Cl` [Example 185], the “IC50 (ug/ml) HSV” value in test [1] was determined as 3 µg/mL (≈ 6.36 µM). Moreover, in test [2], the “IC50 (ug/ml) VZV” value is over 10 µg/mL and the “% inhibition 10 ug/ml VZV” value was 32%.
For the compound `C[C@H](NC(=S)Nc1ccc(NC(=O)c2ccccc2F)cc1)c1ccccc1` [Example 1013, 2-Fluoro-N-{4-[3-((1S)-1-phenyl-ethyl)-thioureido]-phenyl}-benzamide], the IC50 was over 10 µg/mL in test [1] and 0.27 µg/mL (≈ 0.686 µM) in test [2].
As to `CN(c1ccc(NC(=S)Nc2ccc(NC(=O)c3ccccc3F)cc2)cc1Cl)C1CCN(Cc2ccccc2)C1` (stereo not shown) [Example 857, N-[4-(3-{4-[(1-Benzyl-pyrrolidin-3-yl)-methyl-amino]-3-chloro-phenyl}-thioureido)-phenyl]-2-fluoro-benzamide], the IC50 in test [1] was determined as 2 µg/mL (≈ 3.4 µM). Also, in test [2], the inhibition at 10 µg/mL is 80% and the IC50 worked out at 7 µg/mL (≈ 11.9 µM).
The like results for `CSc1ccc(NC(=S)Nc2ccc(NC(=O)c3ccccc3F)cc2)cc1Cl` [Example 847, N-{4-[3-(3-Chloro-4-methylsulfanyl-phenyl)-thioureido]-phenyl}-2-fluoro-benzamide] were, in that order, 0.4 µg/mL (≈ 0.897 µM), 65% and over 10 µg/mL.
Take `COc1c(Cl)cc(NC(=S)Nc2ccc(NC(=O)c3ccccc3F)cc2)cc1Cl` [Example 874, N-{4-[3-(3,5-Dichloro-4-methoxy-phenyl)-thioureido]-phenyl}-2-fluoro-benzamide]: the IC50 in test [1] came out at 5 µg/mL (≈ 10.8 µM). In addition, in test [2], the inhibition at 10 µg/mL was 75% and the IC50 came to 3.5 µg/mL (≈ 7.54 µM).
With `C[C@@H](NC(=S)Nc1ccc(NC(=O)c2ccccc2F)cc1)c1ccc(Cl)cc1` [Example 1014, N-(4-{3-[(1R)-1-(4-Chloro-phenyl)-ethyl]-thioureido}-phenyl)-2-fluoro-benzamide], the results for the IC50 in test [1] and in test [2] were over 10 µg/mL and over 7.5 µg/mL, respectively.
With `C[C@H](NC(=S)Nc1ccc(NC(=O)c2ccccc2F)cc1)c1ccc(Br)cc1` [Example 1004, (S)-N-(4-{3-[1-(4-Bromo-phenyl)-ethyl]-thioureido}-phenyl)-2-fluoro-benzamide], the IC50 in test [1] is over 10 µg/mL; in test [2] it was 0.06 µg/mL (≈ 0.127 µM).
With `C[C@@H](NC(=S)Nc1ccc(NC(=O)c2ccccc2F)cc1)c1ccccc1` [Example 1016, 2-Fluoro-N-{4-[3-((1R)-1-phenyl-ethyl)-thioureido]-phenyl}-benzamide], the values for the IC50 in test [1] and in test [2] were over 10 µg/mL and over 7.5 µg/mL, respectively.
In the case of `Cc1ccc([C@@H](C)NC(=S)Nc2ccc(NC(=O)c3ccccc3F)cc2)cc1` [Example 1012, 2-Fluoro-N-{4-[3-((1R)-1-p-tolyl-ethyl)-thioureido]-phenyl}-benzamide], the IC50 in test [1] is over 10 µg/mL; in test [2], over 7.5 µg/mL.
As for `CC(NC(=S)Nc1ccc(NC(=O)c2cc3ccccc3o2)cc1)c1ccc(Br)cc1` (stereo not shown) [Example 982, Benzofuran-2-carboxylic acid (4-{3-[1-(4-bromo-phenyl)-ethyl]-thioureido}-phenyl)-amide], the IC50 was over 10 µg/mL in test [1] and 0.1 µg/mL (≈ 0.202 µM) in test [2].
